Test results published in patent publication US4771130A, “Target-entrapped drugs” (priority 1984, dated 1988).

What was measured:
[1] = tested on: cataract formation in rat lenses; assay: Cataract formation in rat lenses in organ culture: X-ray irradiated; assay type: cell-based; conditions: 175 Rads X-rays, galactose, eight days
Method: (§1) Organ culture was performed by a modification of the method of Kinoshita et al (see Biochem. Biophys. Acta 158, 472-475 (1968)) with a modified TC 199 medium using 50-75 gm Sprague-Dawly male rats, care being taken to avoid contamination of the system. Fresh rat lenses were treated with Asub-Q in the manner hereinafter described and incubated in the presence of fructose and in the presence of galactose, in order to determine the effect of the Asub-Q. The Asub-Q treatment involved the following:
This experiment was similar to the photoirradiation experiment except that the lenses were irradiated with 175 Rads of X-rays in place of light. […] Lenses incubated with galactose would be completely opaque (V).

[2] = target: T1, aldose reductase in a crude extract of rat lens (Rattus norvegicus, UniProt P07943); assay: Reversible inhibition of aldose reductase (Ki and type of inhibition); assay type: biochemical
T1 construct: aldose reductase in a crude extract of rat lens; from tissue; host or cells: rat lens (crude extract, usually lyophilized)
Method: (§2) Lens aldose reductase used for test purposes was extracted and assayed by the technique reported by Hayman and Kinoshita (see J.Biol. Chem. 240, 877-882 (1965)). The extract was usually adjusted to pH 7.0 and lyophilized. This product is stable indefinitely in the cold and provides particularly reliable assay results since day to day rates are reproducible.
The Ki and type of inhibition of aldose reductase by Asub-Q (0.274 mM) was determined at pH 6.3 in 0.1M phosphate buffer using a saturating concentration of NADPH (121 uM). The results are plotted in FIG. 6.

aldose reductase [3] = target: T2, aldose reductase (Rattus norvegicus, UniProt P07943); assay: Irreversible inhibition of aldose reductase induced by photoirradiation (350 nm); assay type: biochemical
Method: as §2
Photolysis of Asub-Q and aldose reductase was studied in the presence and absence of saturating substrate concentrations (0.274 mM glyceraldehyde, and 0.111 mM NADPH) in 0.1M phosphate buffer, pH 6.3. Photolysis was performed in 3 ml quartz spectrophotometer cuvettes in a Rayonet photochemical reactor with a 350 nm maxima light source. The enzyme was separated from the non-covalently bound inhibitor by passing the photolyzed solution through a Sephadex G-25 column as described above. The results are plotted in FIG. 7. […] The enzyme photolyzed with inhibitor in the presence or absence of substrate is 80% inhibited after 10 minutes.

aldose reductase [4] = target: T2, aldose reductase; assay: X-ray induced irreversible inhibition of aldose reductase; assay type: biochemical
Method: as §2
X-ray irradiation was performed with a General Electric Maximum-100 type X-ray machine using the following settings: 100 kVp, 5 ma, 3 mm Al added, HUL=2.6 mm Al, calibrated output=175 R/min. at 15 cm. Two ml of solution with components at the same concentrations used in photolysis experiments were X-rayed in 50 mm diameter open petri dishes placed at 15.9 cm from the X-ray source. The dosages were varied from 5 to 100 Rads, requiring 1, 2, 3, 4, 34 and 51 seconds exposure, respectively.

[5] = tested on: cataract formation in rat lenses; assay: Cataract formation in rat lenses in organ culture: light irradiated; assay type: cell-based
Method: as §1
(a) rat lenses were incubated in the dark in an incubation medium containing Asub-Q for two hours to permit the drug to diffuse into the lens;
(b) the lenses were then placed into a fresh medium and irradiated for 10 minutes for complete inhibition of aldose reductase;
(c) the lenses were then placed into a fresh medium for […] with four changes in medium in the first 24 hours to permit non-covalently bound drug to diffuse out; and
(d) the lenses were then incubated in a medium containing fructose or galactose.
In a typical experiment four groups of 20 lens, four to a Petri dish, were used. The first group was supplemented with fructose (30 mM); the second, with galactose (30 mM); the third, with fructose (30 mM) and treated with Asub-Q (0.145 mM); and the fourth, with galactose (30 mM) and treated with Asub-Q ([…]). The lens were photographed with color film on a red background and evaluated on a O to V scale with O assigned to a clear lens and V to a lens with a totally opaque cataract. The procedure for treatment and photolysis of the lens was described above.
The number outside the parenthesis is the status of the lenses: O to V. The number inside the parenthesis is the number of the lenses.

[6] = tested on: cataract formation in rats; assay: Cataract formation in galactose-fed rats: light irradiated; assay type: in vivo, rat
Method: Approximately 5-10 μl of Asub-Q (0.65 mM) dissolved in DMSO was injected into the aqueous humour of the right eye of each of three 75 g. rats. After 1 hour, when the drug had diffused into the lens, the rat was irradiated for 30 minutes in a Rayonet Photochemical Reactor. The rats were fed ad-libinum with a mix of 1:1 chow:galactose. The control eyes (left eye) developed detectable cataracts after 3 days.

[7] = pH 6.3, 0.1M phosphate buffer, NADPH 121 uM

## N-(2-nitro-4-azidophenyl) hexylenediamine-N-(2'-O-quercitrin) [Asub-Q]
[1]
  number of lenses per cataract status: 5 clear lenses (O) and 6 with a slight cataract (I)
[2]; crude extract of rat lens
  Ki compared with quercitrin: very similar to quercitrin
[2]; [7]
  Ki: 480 nM
  type of inhibition: noncompetitive inhibitor
[2]; summary statement
  reversible inhibitor activity compared with quercitrin: about the same as quercitrin
[2]; without photolysis
  reversible inhibition of aldose reductase: reversibly inhibits aldose reductase
Aldose reductase [3]; 10 minutes photolysis, 350 nm, in presence or absence of substrate, pH 6.3
  inhibition of enzyme photolyzed with inhibitor: 80%
Aldose reductase [3]; light maximum at 350 nm, chromatographic removal of small molecules
  type of inhibition after irradiation (kinetic analysis): both specific irreversible inhibition and non-specifically bound reversible (soluble immobilized inhibitor) inhibition occur
Aldose reductase [3]; one minute photolysis, 350 nm
  irreversible inhibition: roughly 40%
Aldose reductase [3]; photo- or X-ray irradiation, summary statement
  irreversible inhibition on irradiation: photo- or X-ray sensitive irreversible affinity inhibitor for aldose reductase
Aldose reductase [4]; 20 Rads irradiation or above
  loss of enzyme activity: approximately two thirds
Aldose reductase [4]; mixture of Asub-Q and rat lens extract irradiated with X-rays
  irreversible inhibition of aldose reductase: extensively irreversibly inhibited
[5]; day 35
  cataract progression vs fructose control: not nearly as advanced
[5]; lenses containing Asub-Q, after three days
  lens clarity: remained clear
[5]; overall, organ culture
  resistance to cataract formation vs fructose control lenses: at least as impervious to cataract formation as control lenses that were incubated with fructose
[6]; 5-10 μl of 0.65 mM in aqueous humour, light 30 minutes, 1:1 chow:galactose, 7 days
  cataract in treated right eyes: no cataract was observed
[6]; repeated on thirty rats
  cataract formation, repeat experiment: equivalent results
